Measurements published in paper PMC4685874, “Bromotyrosine-derived alkaloids from the Caribbean sponge Aplysina lacunosa” (Beilstein Journal of Organic Chemistry, 2015).

What was measured:
Format in all cases: cell-based
[1] = WST-1 cell proliferation (cytotoxicity) assay, KB-31; settings: human, WST-1, incubated for 5 days
Experimental: (§1) The cytotoxicity was determined using WST-1 cell proliferation assays. Targeting cell lines are L929 mouse fibroblasts, KB-31 epidermoid carcinoma, and MCF-7 breast cancer cell lines which were incubated for 5 days with the test substances. The acute toxicity was determined using the FS4-LTM conditional immortalization human fibroblasts cell line which was incubated for 24 hours with the test compounds.

[2] = test system: KB-31 epidermoid carcinoma cells; experiment: as above; settings: WST-1, incubated for 5 days
Experimental: as §1

[3] = Acute toxicity, WST-1 assay, FS4-LTM; settings: human, FS4-LTM conditionally immortalized fibroblasts, FS4-LTM conditional immortalization human fibroblasts, incubated for 24 hours; read-out: Cytotoxicity (acute toxicity) IC50 FS4-LTM
Experimental: as §1

[4] = test system: FS4-LTM conditional immortalization human fibroblasts; experiment: Acute toxicity, WST-1 assay, FS4-LTM; settings: incubated for 24 hours, read-out: Cytotoxicity (acute toxicity) IC50 FS4-LTM
Experimental: as §1

[5] = WST-1 cell proliferation (cytotoxicity) assay, MCF-7; settings: human, MCF-7 breast cancer cell line, WST-1, incubated for 5 days
Experimental: as §1

[6] = test system: MCF-7 breast cancer cell line; experiment: as above; settings: WST-1, incubated for 5 days
Experimental: as §1

[7] = WST-1 cell proliferation (cytotoxicity) assay, L929; settings: L929 mouse fibroblasts, WST-1, incubated for 5 days
Experimental: as §1

[8] = KB-31 epidermoid carcinoma cells

Question: Which IC50 at 5 days [1, 8] does the source give for COC1=C(Br)[C@H](O)[C@@]2(C=C1Br)CC(C(=O)NCCCOc1ccc([C@H](O)CNC(=O)C3=NO[C@]4(C=C(Br)C(OC)=C(Br)[C@@H]4O)C3)cc1Br)=NO2 [Compound 1, 14-debromo-11-deoxyfistularin-3] here?
Answer: 69 µM

Question: And the IC50 [2]?
Answer: 68.8 µM

Question: Which results are given for COC1=C(Br)[C@H](O)[C@@]2(C=C1Br)CC(C(=O)NC[C@@H](O)c1cc(Br)c(OCCCNC(C)=O)c(Br)c1)=NO2 [Compound 2, aplysinin A]?
Answer: IC50 at 5 days [1, 8]: 26 µM; IC50 [2]: 25.8 µM; IC50 at 24 hours [3]: 32 µM; IC50 [4]: 32.2 µM; IC50 at 5 days ([5]; MCF-7 breast cancer cells): 78 µM; IC50 [6]: 77.5 µM

Question: For COC1=C(Br)[C@H](O)[C@@]2(C=C1Br)CC(C(=O)NCCCOc1ccc(CCN)cc1Br)=NO2 [Compound 4, 14-debromoaraplysillin I], which IC50 at 5 days ([5]; MCF-7 breast cancer cells) is on record?
Answer: 78.6 µM

Question: And the IC50 at 5 days [7]?
Answer: 94.3 µM

Question: Which IC50 at 5 days [5] does the source give for COC1=C(Br)[C@H](O)[C@@]2(C=C1Br)CC(C(=O)NCC(O)COc1c(Br)cc(C(O)CNC(=O)C3=NO[C@]4(C=C(Br)C(OC)=C(Br)[C@@H]4O)C3)cc1Br)=NO2 (stereo partly shown) [Compound 5, fistularin-3] here?
Answer: 207 µM

Question: What does the source list for COC1=C(Br)[C@H](O)[C@@]2(C=C1Br)CC(C(=O)NCCCOc1c(Br)cc(CCNC(=O)C3=NO[C@]4(C=C(Br)C(OC)=C(Br)[C@@H]4O)C3)cc1Br)=NO2 [Compound 6, 11,19-dideoxyfistularin-3]?
Answer: IC50 at 5 days ([1]; KB-31 epidermoid carcinoma): 88.2 µM; IC50 at 5 days [7]: 118 µM

Question: Which IC50 at 5 days [5] does the source give for COC1=C(Br)[C@H](O)[C@@]2(C=C1Br)CC(C(=O)NCCc1cc(Br)c(OCC(O)CNC(=O)C3=NO[C@]4(C=C(Br)C(OC)=C(Br)[C@@H]4O)C3)c(Br)c1)=NO2 (stereo partly shown) [Compound 7, 19-deoxyfistularin-3] here?
Answer: 60 µM

Question: What does the source list for COC1=C(Br)[C@H](O)[C@@]2(C=C1Br)CC(C(=O)NCCCOc1c(Br)cc(C(O)CNC(=O)C3=NO[C@]4(C=C(Br)C(OC)=C(Br)[C@@H]4O)C3)cc1Br)=NO2 (stereo partly shown) [Compound 8, 11-deoxyfistularin-3]?
Answer: IC50 at 24 hours [3]: 87.3 µM; IC50 at 5 days ([5]; MCF-7 breast cancer cells): 47.2 µM

Question: For COC1=C(Br)[C@H](O)[C@@]2(C=C1Br)CC(C(=O)NCCc1cc(Br)c(OCCCN)c(Br)c1)=NO2 [Compound 10, hexadellin B], which IC50 at 24 hours [3] is on record?
Answer: 73.4 µM

Question: And the IC50 at 5 days ([5]; MCF-7 breast cancer cells)?
Answer: 90.6 µM

Question: What does the source list for CNc1nc(CCCNC(=O)C2=NO[C@]3(C=C(Br)C(OC)=C(Br)[C@@H]3O)C2)c[nH]1 [Compound 15, N-methyl-aerophobin-2]?
Answer: IC50 at 5 days [1, 8]: 48.9 µM; IC50 at 5 days [7]: 55.9 µM

Question: With COC1=C(Br)[C@@H]2OC(=O)C[C@]2(O)C=C1Br [Compound 16, aeroplysinin-2] as the compound, how does the IC50 at 5 days [5] read?
Answer: 96.3 µM

Question: Which IC50 at 5 days ([5]; MCF-7 breast cancer cells) does the source give for COC(=O)Cc1cc(Br)c(O)c(Br)c1O [Compound 17, subereaphenol B] here?
Answer: 64.8 µM
